Measured values taken from ChEMBL document CHEMBL6182838, “Structure-activity relationship expansion and microsomal stability assessment of the 2-morpholinobenzoic acid scaffold as antiproliferative phosphatidylcholine-specific phospholipase C inhibitors” (RSC Med Chem, 2025).

Legend:
MDA-MB-231 [1] = assay: Antiproliferative activity against human MDA-MB-231 cells assessed as cell proliferation measured after 3 days incubation followed by incubated 5 hrs with [3H]-thymidine by 3H-thymidine incorporation assay; type: functional, cell-based
HCT-116 [2] = assay: Antiproliferative activity against human HCT-116 cells assessed as cell proliferation measured after 3 days incubation followed by incubated 5 hrs with [3H]-thymidine by 3H-thymidine incorporation assay; type: functional, cell-based
HCT-116 [3] = assay: Antiproliferative activity against human HCT-116 cells assessed as cell proliferation at 10 uM measured after 3 days incubation followed by incubated 5 hrs with [3H]-thymidine by 3H-thymidine incorporation assay relative to control; type: functional; conditions: HCT-116, 72 h, time 3 day, read-out: Activity
[4] = Metabolic stability in Sprague-Dawley rat microsomes assessed as degradation in absence of NADPH at 10 uM measured up to 60 mins by HPLC analysis; type: ADME, Microsome
MDA-MB-231 [5] = assay: Antiproliferative activity against human MDA-MB-231 cells assessed as cell proliferation at 10 uM measured after 3 days incubation followed by incubated 5 hrs with [3H]-thymidine by 3H-thymidine incorporation assay relative to control; type: functional; conditions: MDA-MB-231, 72 h, time 3 day, read-out: Activity
[6] = Metabolic stability in Sprague-Dawley rat microsomes assessed as degradation in presence of NADPH at 10 uM measured after 1 hr by HPLC analysis; type: ADME, Microsome
Bacillus cereus = assay: Inhibition of Bacillus cereus phosphatidylcholine specific phospholipase C (PC-PLC BC) assessed as enzyme activity by measuring formation of resorufin fluorophore 10 uM by Amplex-Red based fluorescence assay relative to control; design: scale not given: the % may be the effect or the level left
[7] = Metabolic stability in Sprague-Dawley rat microsomes assessed as degradation in presence of NADPH at 10 uM measured up to 60 mins by HPLC analysis; type: ADME, Microsome

| Activity (Bacillus cereus) [%] | Structure (SMILES) | growth at 10 µM (HCT-116 [3]) [%] | growth at 10 µM (MDA-MB-231 [5]) [%] | also measured |
| --- | --- | --- | --- | --- |
|  | O=C(NO)c1cc(NCc2cccc(Br)c2)ccc1N1CCOCC1 | 1.9 |  | IC50 (MDA-MB-231 [1]): 3.3 µM; IC50 (HCT-116 [2]): 5.8 µM |
|  | CN(Cc1ccccc1Cl)c1ccc(N2CCOCC2)c(C(=O)O)c1 | 87.8 | 95.5 | % remaining at 1 h, 10 µM ([4]; Sprague-Dawley, rat microsomes): 94% |
|  | CN(Cc1ccccc1Cl)c1ccc(N2CCOCC2)c(C(=O)NO)c1 | 4.8 | 4.3 | IC50 (MDA-MB-231 [1]): 1.1 µM; IC50 (HCT-116 [2]): 3.4 µM |
| 107 | O=C(O)c1cc(NCc2ccccc2Cl)ccc1C1CCOCC1 | 101 | 111 | Stability [6]: Stable |
|  | O=C(O)c1cc(NCc2ccccc2Cl)ccc1N1CCOCC1 |  |  | metabolised at 1 h, 10 µM ([7]; Sprague-Dawley, rat microsomes, read-out: Drug degradation): 17% |
|  | CCOc1ccc2ccc(=O)oc2c1 [ETHOXYCOUMARIN] |  |  | Stability ([4]; microsomes, 1 h, 10 µM): Stable; Stability ([7]; microsomes, 1 h, 10 µM): Unstable |
|  | O=C(NO)c1cc(NCc2ccccc2Cl)ccc1N1CCOCC1 | 2 | 11.7 | IC50 (MDA-MB-231 [1]): 2.9 µM; IC50 (HCT-116 [2]): 4.9 µM |
| 50.8 | O=C(O)c1ccc(NCc2ccccc2Cl)cc1N1CCOCC1 | 87.6 | 88 | Stability [6]: Stable |
| 54.4 | O=C(NO)c1ccc(NCc2ccc(Cl)cc2)cc1N1CCOCC1 | 57.4 | 45.5 |  |
| 92.5 | O=C(NO)c1cc(NCc2ccc(Cl)cc2)ccc1C1CCOCC1 | 69.9 | 72.2 |  |
| 49.2 | O=C(NO)c1ccc(NCc2ccc(F)cc2)cc1N1CCOCC1 | 91.4 | 81.6 |  |
| 84.9 | O=C(O)c1ccc(NCc2cccc(F)c2)cc1N1CCOCC1 | 93.3 | 92.4 |  |
| 104 | COC(=O)c1ccc(NCc2ccccc2OC)cc1N1CCOCC1 | 55.5 | 73.6 |  |
| 36.2 | O=C(O)c1cc(NCc2cccc(F)c2)ccc1C1CCOCC1 | 103 | 104 |  |
| 95.8 | O=C(O)c1ccc(NCc2cccc(Br)c2)cc1N1CCOCC1 | 101 | 104 |  |
| 116 | O=C(O)c1cc(NCc2ccccc2Br)ccc1C1CCOCC1 | 99.5 | 108 |  |
| 50.9 | O=C(NO)c1ccc(NCc2ccccc2F)cc1N1CCOCC1 | 87.6 | 79.6 |  |
| 75.4 | COC(=O)c1cc(NCc2ccc(OC)cc2)ccc1C1CCOCC1 | 54.5 | 71.2 |  |
